Measurements published in ChEMBL document CHEMBL5252601, “Hydroxy-xanthones as promising antiviral agents: Synthesis and biological evaluation against human coronavirus OC43” (Bioorg Med Chem Lett, 2023).

Legend:
Human coronavirus OC43 = assay: Antiviral activity against HCoV-OC43 infected in hamster BHK-21 cells assessed as inhibition of viral infectivity per ml at 10 uM measured after 3 days; assay type: functional; settings: time 3 day
BHK-21 = assay: Cytotoxicity against hamster BHK-21 cells assessed as reduction in cell viability at 10 uM measured after 3 days; assay type: toxicity, cell-based, Mesocricetus auratus; settings: bhk-21, 72 h, time 3 day

Row | SMILES | log(activity) (Human coronavirus OC43) | Activity (BHK-21)
1 | Cc1ccc2oc3cc(O)cc(O)c3c(=O)c2c1 | 2.79 | >= 85%
2 | COc1ccc2c(=O)c3c(O)cc(O)cc3oc2c1 | 2.67 | >= 85%
3 | O=c1c2ccccc2oc2cc(O)cc(O)c12 | 2.5 | >= 85%
4 | Cc1ccc2c(=O)c3c(O)cc(O)cc3oc2c1 | 2.42 | >= 85%
5 | COc1ccc2oc3cc(O)cc(O)c3c(=O)c2c1 | 2.67 | >= 85%
6 | O=c1c2ccc(O)cc2oc2cccc(O)c12 | 2.2 | >= 85%
7 | O=c1c2c(O)cccc2oc2cc(O)cc(O)c12 | 2 | >= 85%
8 | O=C(c1ccccc1O)c1ccc(O)cc1O | 2.45 | >= 85%
9 | O=c1c2cc(F)ccc2oc2cc(O)cc(O)c12 | 2.38 | >= 85%
10 | O=C(c1ccccc1O)c1ccc(O)c(O)c1O | 1.95 | >= 85%
11 | O=c1c2ccccc2oc2c(O)c(O)ccc12 [3,4-DIHYDROXYXANTHONE] | 1.95 | >= 85%
12 | O=c1c2cc(O)c(O)cc2oc2cc(O)c([C@@H]3O[C@H](CO)[C@@H](O)[C@H](O)[C@H]3O)c(O)c12 [MANGIFERIN] | 3 | >= 85%
13 | O=c1c2ccccc2oc2ccccc12 [XANTHONE] | 2.04 | >= 85%
